Series [1] can be described thus: Photostability study, D65 lamp 4000 lux, 25° C./60% RH, HPLC. The format is physicochemical. The procedure:
(§1) • HPLC data are obtained by Waters Alliance 2695 HPLC system with 2996 PDA detector using the following conditions; • Column: XBridge Phenyl (3.5 micrometers, 4.6×150 mm), • Eluent: acetonitrile/0.3% perchloric acid=35:65, • Detection: UV at 215 nm, • Flow rate: 1 mL/min, and • Column temperature: 40° C.
Photostability samples are set in Nagano Science LTL-200D3CJ-14. The samples are placed in the chamber and stored under 25° C./60% RH condition and irradiated with a D65 lamp on light condition of 4000 lux. HCl-salt Crystalline Form A, HCl-salt Amorphous, and Free-base Amorphous samples store for 13, 26 and 50 days under the condition are analyzed by HPLC, respectively.
FIGS. 7, 8 and 9 show the data of degradation products except for the existing products at initial samples (Day 0), i.e., definitely arising peaks on the HPLC chart after storing initial samples under light exposure. The relative retention time (RRT) represents a ratio of retention time (RT) of a target peak to RT of the main peak. In case of the appearance of the peak at same RRT at least two consecutive storing periods of 13, 26 and 50 days, the arising peak is recognized as a degradation product.

The format of series [2] is physicochemical. The following applies: for other arising degradation products (not existing at Day 0) / remaining: 40° C./75% RH, storage period of 50 days, HPLC. The method, then: as §1
Solid-state stability study is performed using Nagano Science Constant temperature/humidity control chamber LH-20-11M, LH-21-11M, LTL-200D3CJ-14 or LTX-01. The samples are placed in the chamber and exposed under 25° C./60% RH, 40° C./75% RH and/or irradiated with the light such as D65 lamp or Xenon lamp. The crystalline form, thermal behavior, purity and/or weight change of the resultant sample after the exposure or irradiation are evaluated by XRPD, TG/DTA or DSC, HPLC, microbalance, respectively.

Series [3] in a line: Hygroscopicity study by dynamic vapor sorption (DVS) analysis. The series is classed as physicochemical. The following applies: for weight gain %: 25° C., DVS sorption; for water absorbed (water adsorption): 90% RH at 25° C. The procedure:
Hygroscopicity study is performed using Surface Measurement Systems DVS-1. The sample is placed on a microbalance in the instrument and the weight change during the sorption at 25° C. is monitored. One of the programs consists of a sorption scan from 0 to 90% relative humidity (RH) at 5% RH increments and the sample is allowed to equilibrate for 360 minutes or until equilibration had been attained at each step.
The hygroscopicity study is performed by using dynamic vapor sorption (DVS) analysis.

Series [4] deals with T1, motilin receptor (Homo sapiens, UniProt O43193).
T1 construct: 'the cell expressing motilin receptor and reporter gene'
T1 sequence (O43193 whole entry, species assumed): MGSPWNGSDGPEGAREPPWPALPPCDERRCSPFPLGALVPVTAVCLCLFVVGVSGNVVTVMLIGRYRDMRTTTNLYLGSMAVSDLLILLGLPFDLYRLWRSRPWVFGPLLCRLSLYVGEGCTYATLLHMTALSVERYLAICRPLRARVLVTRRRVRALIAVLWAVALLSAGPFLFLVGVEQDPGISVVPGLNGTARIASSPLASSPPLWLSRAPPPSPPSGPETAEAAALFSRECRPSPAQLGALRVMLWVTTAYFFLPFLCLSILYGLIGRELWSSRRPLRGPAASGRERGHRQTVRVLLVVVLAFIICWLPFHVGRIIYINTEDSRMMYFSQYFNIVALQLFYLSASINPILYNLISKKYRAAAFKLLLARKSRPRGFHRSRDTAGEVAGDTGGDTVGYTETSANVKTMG
Kind of series: Motilin receptor agonistic activity, reporter gene assay. The following applies: cell expressing motilin receptor and reporter gene; compared with initial sample. The series is classed as cell-based. The text has this: Motilin receptor agonistic activity is identified by reporter gene assay using the cell expressing motilin receptor and reporter gene. The dose-response curve of assay sample is plotted and calculated to determine an agonistic activity (EC50).

Series [5] can be described thus: Solubility study in buffers and water for injection. The format is physicochemical. As to conditions: aqueous buffer, thermodynamic from solid, buffers pH 1.06, 2.98, 4.44, 7.34, 7.40, 9.22 and WFI, 5 mg in 20 microL. The method, then: Each 5 mg of HCl-salt Crystalline Form A was weighed in a vial and each 20 microL of buffers (pH 1.06, 2.98, 4.44, 7.34, 7.40 and 9.22) and WFI (water for injection) was added to the vial. After the mixture was shaken with a vortex mixer and stood still for 15 min, no insoluble matter was observed. The mixture kept a clear solution after still standing for 2 days.

Series [6] can be described thus: Chiral analysis by HPLC. The format is physicochemical. The following applies: CHIRALPAK IC HPLC. The method, then: • High Performance Liquid Chromatography (HPLC) measurement • HPLC data are obtained by Waters Alliance 2695 HPLC system with 2996 PDA detector using the following conditions; • Column: DAICEL CHIRALPAK IC (5 micrometers, 4.6×250 mm), • Eluent: n-hexane/ethanol/diethylamine=87/13/0.1 (v/v/v), • Detection: UV at 254 nm, • Flow rate: 1 mL/min, and • Column temperature: 40° C. • Data processing is performed with Empower 3 software supplied from Waters Corporation

Each structure is given as a SMILES string. Structures can show the parent of a compound that is named as a salt. Where only a bound is given, the exact number is not on record here.

For the molecule `CC1(C)C(=O)N(C2CCN(C(=O)[C@H](CCc3ccccc3)NC(=O)[C@@H]3CCCNC3)CC2)c2ccccc21` [Free-base Amorphous, (R)—N—((S)-1-(4-(3,3-dimethyl-2-oxoindolin-1-yl)piperidin-1-yl)-1-oxo-4-phenylbutan-2-yl)piperidine-3-carboxamide], the “arising degradation products (peaks) due to irradiating light” value in series [1] (13 days) amounted to 2 peaks; in series [1] (26 days), 4 peaks; in series [1] (50 days), 4 peaks. Besides, the “other arising degradation products (not existing at Day 0)” value in series [2] was “four”. In series [2], the fraction remaining (as a rule, what is left of the initial amount, in per cent) stood at 97.2%. The weight gain % in series [3] (50% RH) was 5.2%; in series [3] (60% RH), 7.1%; in series [3] (70% RH) it was 9.5%; in series [3] (80% RH) it was 11.7%; in series [3] (90% RH), 17.9%. In series [3], the “water absorbed (water adsorption)” value was 17.9 wt %.

For `CC1(C)C(=O)N(C2CCN(C(=O)[C@H](CCc3ccccc3)NC(=O)[C@@H]3CCCNC3)CC2)c2ccccc21.Cl` [HCl-salt Amorphous, (R)—N—((S)-1-(4-(3,3-dimethyl-2-oxoindolin-1-yl)piperidin-1-yl)-1-oxo-4-phenylbutan-2-yl)piperidine-3-carboxamide amorphous solid of hydrochloride], the “arising degradation products (peaks) due to irradiating light” value in series [1] (13 days) is 2 peaks; in series [1] (26 days), 5 peaks; in series [1] (50 days) it was 5 peaks. Further, the “other arising degradation products (not existing at Day 0)” value in series [2] is on record as “one”. In series [2], this molecule returned an amount remaining of 97.0%. For the same molecule, the weight gain % in series [3] (50% RH, hydrochloride) came to 5.2%; in series [3] (60% RH, hydrochloride) it was 7.6%; in series [3] (70% RH, hydrochloride), 9.4%; in series [3] (80% RH, hydrochloride), 13.3%; in series [3] (90% RH, hydrochloride), 20.5%. In addition, the “water absorbed (water adsorption)” value in series [3] (hydrochloride) is on record as 20.5 wt %.

Turning to `CC1(C)C(=O)N(C2CCN(C(=O)[C@H](CCc3ccccc3)NC(=O)[C@@H]3CCCNC3)CC2)c2ccccc21` [HCl-salt Crystalline Form A, (R)—N—((S)-1-(4-(3,3-dimethyl-2-oxoindolin-1-yl)piperidin-1-yl)-1-oxo-4-phenylbutan-2-yl)piperidine-3-carboxamide hydrochloride Crystalline Form A], the “agonistic activity (EC50)” value in series [4] was “high potency consistent with initial sample”. Further, the solubility (in general, the concentration that dissolves in the medium under given conditions) at 15 min in series [5] is above 250 mg/mL. In series [1] (storing periods of 13, 26 and 50 days), the “arising degradation products due to irradiating light” value is “no arising degradation products”. Besides, in series [6], the “stability in chiral analysis” value is reported as “preferable stability”. Moreover, in series [2], the “other arising degradation products (not existing at Day 0)” value is given as “no other arising degradation products”. The “changes in appearance, XRPD, IR (KBr), m.p. (DSC onset) and potency” value in series [2] (during the storage period) is “no significant changes”. Further, the weight gain % in series [3] (50% RH) is 0.0%; in series [3] (60% RH), 0.2%; in series [3] (70% RH), 0.4%; in series [3] (80% RH), 1.6%; in series [3] (90% RH), 3.4%. In addition, the “water absorbed (water adsorption)” value in series [3] is reported as “less than or equal to 3.4 wt %”.

`CC1(C)C(=O)N(C2CCN(C(=O)[C@H](CCc3ccccc3)NC(=O)[C@@H]3CCCNC3)CC2)c2ccccc21.Cl` [HCl-salt Crystalline Form B, (R)—N—((S)-1-(4-(3,3-dimethyl-2-oxoindolin-1-yl)piperidin-1-yl)-1-oxo-4-phenylbutan-2-yl)piperidine-3-carboxamide hydrochloride Crystalline Form B]: in series [6], the “stability in chiral analysis” value is “preferable stability”. For the same molecule, the weight gain % in series [3] (50% RH) is 0.0%; in series [3] (60% RH), 0.0%; in series [3] (70% RH), 0.0%; in series [3] (80% RH), 4.9%; in series [3] (90% RH), 8.6%. The “water absorbed (water adsorption)” value in series [3] is recorded as at most 8.6 wt %.

For the molecule `CC1(C)C(=O)N(C2CCN(C(=O)[C@H](CCc3ccccc3)NC(=O)[C@@H]3CCCNC3)CC2)c2ccccc21.O=C(O)CNC(=O)c1ccccc1` [hippurate salt crystalline, (R)—N—((S)-1-(4-(3,3-dimethyl-2-oxoindolin-1-yl)piperidin-1-yl)-1-oxo-4-phenylbutan-2-yl)piperidine-3-carboxamide hippuric acid salt (hippurate salt)], the “observation in hygroscopicity study” value in series [3] (90% RH) is on record as “partial deliquescence is observed”. The “water absorbed (water adsorption)” value in series [3] is 16.0 wt %.

In the case of `CC1(C)C(=O)N(C2CCN(C(=O)[C@H](CCc3ccccc3)NC(=O)[C@@H]3CCCNC3)CC2)c2ccccc21.CS(=O)(=O)O` [mesylate salt crystalline, (R)—N—((S)-1-(4-(3,3-dimethyl-2-oxoindolin-1-yl)piperidin-1-yl)-1-oxo-4-phenylbutan-2-yl)piperidine-3-carboxamide methanesulfonic acid salt (mesylate salt)], the water adsorption in series [3] (60% RH) is on record as 3.7 wt %. In series [3], the “water absorbed (water adsorption)” value is 16.9 wt %.

Source of the values: patent US12552776B2, “Crystalline forms” (priority 2021, dated 2026).
